Laboratory results from patent EP0309541B1, “SULFONYLCARBOXAMIDES” (AMERICAN HOME PRODUCTS CORPORATION, priority 1987, dated 1988).

How the values were obtained:
[1] = test system: LTD₄ induced bronchoconstriction; assay: Inhibition of leukotriene-induced bronchospasm in guinea pigs in vivo; conditions: 10 minutes before induction of bronchospasm, inhibition of % max AUC
Protocol: The assay of this Example measures the in vivo ability of the compounds of the invention to inhibit the bronchospasm induced in guinea pigs by the exogenously administered leukotrienes C₄ and/or D₄.
(§1) This assay is carried out as follows:
Male Hartley strain guinea pigs (350-600g) are anesthetized with pentobarbital sodium (50 mg/kg, i.p.). The jugular vein is cannulated for injection of drugs and the carotid artery for monitoring blood pressure. The trachea is cannulated for artificial ventilation by a miniature Starling pump and for indirect measurement of respiratory volume changes. The animals are then pretreated with succinylcholine (2 mg/kg i.v.) and indomethacin (10 mg/kg i.v. in trizma 8.3 buffer, 9 minutes prior to leukotriene challenge). Submaximal bronchoconstrictor responses are established in control animals by varying the dose-levels of leukotriene. Intravenous dose-levels for LTC₄ range from 0.4 to 0.6 µg/kg and for LTD₄ the range is from 0.3 to 0.5 µg/kg.
Test drugs (dissolved in a solvent such as propylene glycol, polyethylene glycol 400 or saline) are administered either intraduodenally, by aerosol or intragastrically at 2 or 10 minutes before induction of bronchospasm by administration of either LTC₄ or LTD₄ at the predetermined dose-level. Aerosol of soluble drugs or leukotrienes are produced in-line for 10 seconds only by actuation of an ultrasonic nebulizer (Monaghan). Aerosolized drug dosage is expressed in terms of solution concentration and by a fixed aerosol exposure time (approximately 10 seconds). Control animal receive solvent (2 ml/kg i.d. or appropriate aerosol) in place of drug.
Respiratory volume changes are determined by a calibrated piston whose travel is recorded, via a linear transducer, on a Beckman Dynograph recorder. Maximal bronchoconstrictor volume is determined by clamping off the trachea at the end of the experiment. Overflow volumes at 1, 3 and 5 minutes are obtained from the recorded charts.
Student's t-test for unpaired data is used to determine statistical significance (p < 0.05).

[2] = test system: rat carrageenan paw edema; assay: Rat carrageenan paw edema assay; format: in vivo; conditions: for % Inhibition at 50 mg/kg (peroral): 1 hour prior to carrageenan, edema at 3 hours; for ED50: oral, standard drugs, rat paw edema, read-out: Oral ED50 (95% C.L.)
Protocol: The compounds of the invention are further tested in the rat carrageenan paw edema assay to determine their ability to inhibit the acute inflammatory response.
as §1
140-180 gm male Sprague-Dawley rats, in groups of 6 animals are injected subcutaneously in the right paw with 0.1 ml of 1% carrageenan at zero time. Mercury plethysmographic readings (ml) of the paw are made at zero time and 3 hours later. Test compounds are suspended or dissolved in 0.5% methylcellulose and given perorally 1 hour prior to carrageenan administration.
The increase in paw volume (edema in ml.) produced by the carrageenan is measured. […] Unpaired Student's t-test is used to determine statistical significance.

[3] = test system: synthesis of 5-HETE by rat glycogen elicited polymorphonuclear leukocytes; assay: Inhibition of 5-HETE synthesis by rat glycogen elicited polymorphonuclear leukocytes; format: cell-based; conditions: Leukocyte, rat peritoneal PMN, A23187 10 µM, [14C] arachidonic acid, read-out: IC₅₀
Protocol: The assay of this Example measures the ability of the compounds of the invention to inhibit the synthesis of 5-HETE by rat glycogen elicited polymorphonuclear leukocytes.
The assay is carried out as follows:
(§2) Peritoneal PMN are obtained from female Wistar rats (150-250 g) that received an i.p. injection of 6% glycogen (10 ml). After 24 hours, rats are killed by Co₂ asphyxiation and peritoneal cells are harvested by peritoneal lavage using Ca⁺⁺ and Mg⁺⁺ free Hanks' balanced salt solution (HBSS). The peritoneal exudate is centrifuged at 400 g for 10 minutes. After centrifugation, the lavaged fluid is removed and the cell pellet is resuspended in HBSS containing Ca⁺⁺ and Mg⁺⁺ and 10 mM L-cysteine at a concentration of 2 x 10⁷ cells/ml. To 1 ml portions of cell suspension, test drugs or vehicle are added and incubated at 37°C for 10 minutes. Following this preincubation, the calcium ionophore (10 µM), A23187, is added together with 0.5 µCi [₁₄C] arachidonic acid and further incubated for 10 minutes. The reaction is stopped by the addition of ice cold water (3 ml) and acidifying to pH 3.5. Lipoxygenase products are then extracted twice into diethyl ether. […] After chromatography, the areas associated with 5-HETE standard are identified by autoradiography, cut out and quantitated by liquid scintillation.

[4] = test system: synthesis of the arachidonic acid cyclooxygenase oxidation product PGE₂; assay: Inhibition of PGE₂ synthesis (cyclooxygenase product) by rat polymorphonuclear leukocytes; format: cell-based; conditions: Leukocyte, rat peritoneal PMN, procedure of Example 4, read-out: IC₅₀
Protocol: as §2, with “scintillation. […]” for “scintillation.”
In this assay, the procedure of Example 4 is carried out as described. […] After chromatography, the areas associated with the PGE₂ standard are identified by autoradiography, cut out and quantitated by liquid scintillation techniques.
The results are calculated as in Example 4.

[5] = 25 mg/kg intraduodenally administered
[6] = 25 mg/kg intragastrically administered

| Structure (SMILES) | % Inhibition [1, 5] | % Inhibition [1, 6] | % Inhibition at 50 mg/kg (peroral) [2] | ED50 [2] | IC50 [3] | IC50 [4] |
| --- | --- | --- | --- | --- | --- | --- |
| Cc1ccc(S(=O)(=O)NC(=O)CCc2cccc(OCc3ccc4ccccc4n3)c2)cc1 [Example 1, N-[(4-Methylphenyl)sulfonyl]-3-(2-quinolylmethoxy)benzenepropanamide] | 97% | 66% | 40% | – | – | – |
| CCCCC1C(=O)N(c2ccccc2)N(c2ccccc2)C1=O [Phenylbutazone] | – | – | – | 26.2 mg/kg | – | – |
| COc1ccc2c(c1)c(CC(=O)O)c(C)n2C(=O)c1ccc(Cl)cc1 [Indomethacin] | – | – | – | 3.7 mg/kg | – | – |
| Cc1ccc(S(=O)(=O)NC(=O)c2cccc(OCc3ccc4ccccc4n3)c2)cc1 [Example 3, N-[(4-Methylphenyl)sulfonyl]-3-(2-quinolinylmethoxy)benzamide] | 97% | 91% | 50% | – | 6 µM | 13 µM |
| CC(=O)Oc1ccccc1C(=O)O [Aspirin] | – | – | – | 145 mg/kg | – | – |
